Bridge positions count the residues as written; N and C are the ends. Square brackets hold non-standard residues; d marks the D form. Peptide text beside a SMILES is read from it. Mpa = O=C(O)CCS
How the values were obtained:
Homo sapiens [1] = organism: Homo sapiens; test: Selectivity ratio of EC50 for human V1a receptor to EC50 for human OTR
Oxytocin receptor = biological target: T1, Oxytocin receptor (Homo sapiens, UniProt P30559); test: Agonist activity at human OTR expressed in CHO cells assessed as calcium mobilization measured after 30 mins by Fluo-4-AM dye based FLIPR assay; format: functional, cell-based
T1 sequence (P30559 whole entry): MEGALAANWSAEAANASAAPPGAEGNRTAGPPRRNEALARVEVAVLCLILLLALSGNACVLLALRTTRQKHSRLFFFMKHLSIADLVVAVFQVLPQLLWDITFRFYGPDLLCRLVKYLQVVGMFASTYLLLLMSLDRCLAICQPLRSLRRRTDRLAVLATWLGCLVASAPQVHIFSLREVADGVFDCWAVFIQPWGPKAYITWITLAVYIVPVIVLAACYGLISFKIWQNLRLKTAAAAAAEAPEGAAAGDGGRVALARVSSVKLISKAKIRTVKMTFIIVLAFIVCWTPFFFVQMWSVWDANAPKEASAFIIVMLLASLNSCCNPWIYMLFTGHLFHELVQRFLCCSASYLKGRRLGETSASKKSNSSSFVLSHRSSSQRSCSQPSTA

Homo sapiens [2] = organism: Homo sapiens; test: Selectivity ratio of EC50 for human V1b receptor to EC50 for human OTR
Vasopressin V1a receptor = Vasopressin V1a receptor (Homo sapiens, UniProt P37288); test: Agonist activity at human V1a receptor expressed in CHO cells assessed as calcium mobilization measured after 30 mins by Fluo-4-AM dye based FLIPR assay; format: cell-based
Vasopressin V1b receptor = biological target: T2, Vasopressin V1b receptor (Homo sapiens, UniProt P47901); test: Agonist activity at human V1b receptor expressed in CHO cells assessed as calcium mobilization measured after 30 mins by Fluo-4-AM dye based FLIPR assay; format: cell-based
T2 sequence (P47901 whole entry): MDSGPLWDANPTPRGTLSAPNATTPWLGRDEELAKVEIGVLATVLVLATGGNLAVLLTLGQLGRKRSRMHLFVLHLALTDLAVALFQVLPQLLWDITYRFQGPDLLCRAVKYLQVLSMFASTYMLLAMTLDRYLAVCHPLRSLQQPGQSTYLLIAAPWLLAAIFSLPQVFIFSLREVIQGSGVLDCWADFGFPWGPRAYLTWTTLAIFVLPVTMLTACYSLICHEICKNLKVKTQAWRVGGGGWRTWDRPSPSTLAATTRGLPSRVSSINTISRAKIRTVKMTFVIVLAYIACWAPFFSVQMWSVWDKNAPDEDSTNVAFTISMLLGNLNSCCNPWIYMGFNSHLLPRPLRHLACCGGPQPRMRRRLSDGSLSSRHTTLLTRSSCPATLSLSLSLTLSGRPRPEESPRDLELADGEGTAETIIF

Chain of Vasopressin V1a receptor (P37288 whole entry): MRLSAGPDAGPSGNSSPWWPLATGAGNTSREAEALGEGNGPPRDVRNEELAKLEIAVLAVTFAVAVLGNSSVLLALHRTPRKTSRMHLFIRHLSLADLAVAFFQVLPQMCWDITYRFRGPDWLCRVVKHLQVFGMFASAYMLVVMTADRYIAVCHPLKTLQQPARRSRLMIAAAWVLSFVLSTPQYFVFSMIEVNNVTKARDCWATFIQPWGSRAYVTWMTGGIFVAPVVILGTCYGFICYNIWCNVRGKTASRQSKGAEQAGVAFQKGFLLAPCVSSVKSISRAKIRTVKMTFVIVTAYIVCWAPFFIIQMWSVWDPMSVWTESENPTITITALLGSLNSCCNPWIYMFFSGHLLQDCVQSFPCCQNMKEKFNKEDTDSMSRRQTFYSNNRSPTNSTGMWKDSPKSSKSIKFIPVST

SMILES | Ratio EC50 (Homo sapiens [1]) | EC50 (Oxytocin receptor) [nM] | Ratio EC50 (Homo sapiens [2]) | EC50 (Vasopressin V1a receptor) [nM] | EC50 (Vasopressin V1b receptor) [nM]
CC[C@H](C)[C@@H]1NC(=O)[C@H](Cc2ccc(O)cc2)NC(=O)CCSSC[C@@H](C(=O)N2CCC[C@H]2C(=O)N[C@@H](CC(C)C)C(=O)NNC(N)=O)NC(=O)[C@H](CC(N)=O)NC(=O)[C@H](CCC(N)=O)NC1=O | 9300 | 0.0075 | 970 | 70 | 7.3
CC[C@H](C)[C@@H]1NC(=O)[C@H](Cc2ccc(O)cc2)NC(=O)CCSSC[C@@H](C(=O)N2CCC[C@H]2C(=O)N[C@@H](CC(C)C)C(=O)NCC(N)=O)NC(=O)[C@H](CC(N)=O)NC(=O)[C@H](CCC(N)=O)NC1=O | – | – | – | – | 3.2
CC[C@H](C)[C@@H]1NC(=O)[C@H](C)NC(=O)CCSSC[C@@H](C(=O)N2CCC[C@H]2C(=O)N[C@@H](CC(C)C)C(=O)NCC(N)=O)NC(=O)[C@H](CC(N)=O)NC(=O)[C@H](CCC(N)=O)NC1=O ([Mpa]AIQNCPLG-NH2; disulfide 1-6) | – | > 100 | – | > 100 | > 100
CC[C@H](C)[C@@H]1NC(=O)[C@H](CCC(=O)O)NC(=O)CCSSC[C@@H](C(=O)N2CCC[C@H]2C(=O)N[C@@H](CC(C)C)C(=O)NCC(N)=O)NC(=O)[C@H](CC(N)=O)NC(=O)[C@H](CCC(N)=O)NC1=O ([Mpa]EIQNCPLG-NH2; disulfide 1-6) | – | > 100 | – | > 100 | > 100
CC[C@H](C)[C@@H]1NC(=O)[C@H](CCCNC(=N)N)NC(=O)CCSSC[C@@H](C(=O)N2CCC[C@H]2C(=O)N[C@@H](CC(C)C)C(=O)NCC(N)=O)NC(=O)[C@H](CC(N)=O)NC(=O)[C@H](CCC(N)=O)NC1=O ([Mpa]RIQNCPLG-NH2; disulfide 1-6) | – | > 100 | – | > 100 | > 100
CC[C@H](C)[C@@H]1NC(=O)[C@H](CO)NC(=O)CCSSC[C@@H](C(=O)N2CCC[C@H]2C(=O)N[C@@H](CC(C)C)C(=O)NCC(N)=O)NC(=O)[C@H](CC(N)=O)NC(=O)[C@H](CCC(N)=O)NC1=O ([Mpa]SIQNCPLG-NH2; disulfide 1-6) | – | > 100 | – | > 100 | > 100
CC(C)C[C@H](NC(=O)[C@@H]1CCCN1C(=O)[C@@H]1CSSCCC(=O)N[C@@H](Cc2ccc(O)cc2)C(=O)N[C@@H](CCC(=O)O)C(=O)N[C@@H](CCC(N)=O)C(=O)N[C@@H](CC(N)=O)C(=O)N1)C(=O)NCC(N)=O ([Mpa]YEQNCPLG-NH2; disulfide 1-6) | – | > 100 | – | > 100 | > 100
CC[C@H](C)[C@@H]1NC(=O)[C@H](Cc2ccc(O)cc2)NC(=O)CCSSC[C@@H](C(=O)N2CCC[C@H]2C(=O)N[C@@H](CC(C)C)C(=O)NCC(N)=O)NC(=O)[C@H](Cc2ccccc2)NC(=O)[C@H](CCC(N)=O)NC1=O ([Mpa]YIQFCPLG-NH2; disulfide 1-6) | – | > 100 | – | > 100 | > 100
CC[C@H](C)[C@@H]1NC(=O)[C@H](Cc2ccc(O)cc2)NC(=O)CCSSC[C@@H](C(=O)N2CCC[C@H]2C(=O)N[C@@H](CC(C)C)C(=O)NCC(N)=O)NC(=O)[C@H](CC(C)C)NC(=O)[C@H](CCC(N)=O)NC1=O ([Mpa]YIQLCPLG-NH2; disulfide 1-6) | – | > 100 | – | > 100 | > 100
CC[C@H](C)[C@@H]1NC(=O)[C@H](Cc2ccc(O)cc2)NC(=O)CCSSC[C@@H](C(=O)N2CCC[C@H]2C(=O)N[C@@H](CC(C)C)C(=O)NCC(N)=O)NC(=O)[C@H](CCCNC(=N)N)NC(=O)[C@H](CCC(N)=O)NC1=O ([Mpa]YIQRCPLG-NH2; disulfide 1-6) | – | > 100 | – | > 100 | > 100
CC(C)C[C@H](NC(=O)[C@@H]1CCCN1C(=O)[C@@H]1CSSCCC(=O)N[C@@H](Cc2ccc(O)cc2)C(=O)N[C@@H](CCCNC(=N)N)C(=O)N[C@@H](CCC(N)=O)C(=O)N[C@@H](CC(N)=O)C(=O)N1)C(=O)NCC(N)=O ([Mpa]YRQNCPLG-NH2; disulfide 1-6) | – | > 100 | – | > 100 | > 100
